Assay results: patent publication US9505841B2, “Use of an anti-Ang2 antibody” (Samsung Electronics Co., Ltd., priority 2013, dated 2016)

B1: 10D6 Fab: Fab fragments of antibody 10D6 obtained by immobilized papain digestion and removal of Fc (antibody, V domains shown)
VH: DVQLQESGPGLVKPSQSLSLTCTVTGYSITSDYAWNWIRQFPGNKLEWMGYINYSGNTDYNPSLKSRSSITRDTSKNQFFLQLNSVTTGDTATYYCARGNFEGAMDYWGQGTSVTVSS
VL: SIVMTQTPKFLLVSAGDRVTITCKASQSVSNDVAWYQQKPGQSPKLLIYYASNRYPGVPDRFTGSGYGTDFTFTISTVQAEDLAVYFCQQDYSSPWTFGGGTKLEIK

What was measured:
LLC tumor = assay: Co-administration of anti-Ang2 antibody and cisplatin in LLC lung cancer animal model; assay type: in vivo, mouse; conditions: LLC mice; antibody 10 mg/kg i.p. every three days, five times; cisplatin 3 mg/kg i.p. once; control Fc of IgG1
Procedure: The synergistic effect of co-treatment of antibody 10D6 and cisplatin was examined.
In particular, referring to Example 14, LLC tumor cells were subcutaneously injected into mice. When the size of tumors reached 50˜100 mm^3, anti-Ang2 antibody 10D6 was injected at the concentration of 10 mg/kg via an intraperitoneal injection every three days a total of five times. After administering antibody 10D6 twice, 3 mg/kg of cisplatin (Sigma-Aldrich) was intraperitoneally injected once. The size of tumor (V) was calculated using the following formula: Volume (V)=(width)2×length/2
For comparison, the same experiment was performed to a control group treated with Fc of IgG1 and a comparative group treated with antibody 4H10.
In addition, an experiment was performed to examine whether the synergistic effect obtained by co-administration of 10D6 and cisplatin as described above is due to the increased transporting efficiency of the administered cisplatin induced by the vascular normalization by treatment of 10D6. Cisplatin binds to DNA in a living body and induces crosslinking, thereby inducing cell death. Rat monoclonal anti-Cisplatin modified DNA (CP9/19) antibody (1:200, Abcam), which is capable of binding to DNA modified by cisplatin in tumor frozen sections, and hamster anti-CD31 antibody (1:200, Millipore), were used for immunofluorescence staining, and fluorescence images were obtained using LSM5 confocal microscope (Zeiss). In addition, to examine necrotic region, the tumor frozen sections were stained with H&E according to standard protocol, and then, Eosin+ cell region in tumor was observed. The obtained results are illustrated in FIG. 18C.

Tie2 receptor = assay: Tie2, Akt and 42/44 phosphorylation in HUVEC: antibody 10D6 versus 10D6 Fab; assay type: cell-based, human; conditions: 60 nM 10D6 antibody or 10D6 Fab with 40 nM Ang2
Procedure: To see whether the activation of a Tie2 receptor is resulted from the dimerization of antibody 10D6, Fab fragments of antibody 10D6 were purified and then used for this experiment. The Fab fragments were obtained from antibody 10D6 using an Fab Preparation Kit (Pierce). As a digestion buffer, PBS containing 20 mM EDTA and 20 mM L-Cysteine was used, and the antibody was separated into Fab and Fc by the treatment with an immobilized papain at a room temperature for 2 hours. The Fc fragments were removed from the reaction solution using MabSelectSuRe column (GE Healthcare) to isolate and purify pure Fab fragments only.
HUVEC (ATCC) cells (1×10^6) were cultured in a 100 mm culture dish using EGM-2 (Lonza) media at 37° C. and when they reached 80˜90% confluency, the media were replaced with serum-free media (Lonza) and cultured at 37° C. for 6 to 16 hours. The dish was washed once with PBS and after the replacement with […] sodium orthovanadate (Sigma)-mixed serum free media (Lonza), they were further cultured for 10 min. After washed once with PBS, the cultured cells were treated with a mixture prepared by mixing 60 nM of 10D6 Ang2 antibody or 10D6 Fab with 40 nM of Ang2 protein (R&D systems) and letting them stand for 20 min. and further cultured for 10 min. […]

| Molecule | tumor size decreased by, compared to the control (LLC tumor) [%] | phosphorylation of Tie2, Akt and 42/44 (Tie2 receptor) |
| --- | --- | --- |
| N.N.[Cl][Pt][Cl] [cisplatin, reference compound] | 17.6 | – |
| B1 | – | activation was not observed |
